Reference: the NIST ThermoML archive (doi:10.1016/j.jct.2018.12.031)

Experiments:
[1] = 100 kPa, Liquid, Frequency=3 MHz, Linear variable-path acoustic interferometer
[2] = xn = mol fraction of the nth substance listed; conditions: 100 kPa, Liquid; for speed of sound: Frequency=3 MHz, Linear variable-path acoustic interferometer; for mass density: Pycnometric method

N#Cc1ccccc1 [benzonitrile]
[1]
Conditions	speed of sound [m/s]
293.15 K	1436.9
298.15 K	1418.2
303.15 K	1400.7
308.15 K	1384
313.15 K	1368.2
318.15 K	1352.9

N#Cc1ccccc1 [benzonitrile] + C=C(C)C(=O)OCCCC
[2], x1 = 1
Conditions	mass density [kg/m3]	speed of sound [m/s]
293.15 K	1003.99	1436.9
298.15 K	1000.32	1418.2
303.15 K	996.65	1400.7
308.15 K	992.98	1384
313.15 K	989.31	1368.2
318.15 K	985.64	1352.9

C=C(C)C(=O)OC [methyl methacrylate] + N#Cc1ccccc1
[2], x2 = 0
Conditions	mass density [kg/m3]	speed of sound [m/s]
293.15 K	943.38	1200.5
298.15 K	937.64	1183.6
303.15 K	931.9	1168.5
308.15 K	926.16	1152.6
313.15 K	920.42	1135.4
318.15 K	914.67	1118.3

N#Cc1ccccc1 [benzonitrile] + C=C(C)C(=O)OCC
[2], x1 = 1
Conditions	mass density [kg/m3]	speed of sound [m/s]
293.15 K	1003.99	1436.9
298.15 K	1000.32	1418.2
303.15 K	996.65	1400.7
308.15 K	992.98	1384
313.15 K	989.31	1368.2
318.15 K	985.64	1352.9
